Ends that are not written are not given here.
Columns and labels:
Format in all cases: physicochemical
[1] = Visual appearance of solution
Protocol: The remainder of the peptide suspension was diluted to an assumed concentration of 5 mg/mL and 4*1 mL samples were adjusted to pH 2, 4, 6 and 8, (see FIG. 2). All 4 vials continued to be opaque indicating limited solubility.
Approximately 16 mg/mL AnxA1 was added to milliQ® water. The resulting pH was 7.5. pH was adjusted to pH 10 in one sample using 0.1 M NaOH and to pH 2 using 0.1 M HCl in another sample, according to table 3. The appearance of the solution was noted. At pH≥7.4 the solution was clear. At pH≤7.1>2.6 solutions where unclear. At pH≤2.6 the solution was again clear. Data are summarized the Table 3, see also FIG. 5.
AnxA1 samples are dissolved in Milli Q® water or 5% mannitol in Milli Q® water to approximately 18 mg/mL and pH was adjusted using 1.0 M HCl and NaOH. After dissolution visual appearance was noted and a photograph was taken, see FIG. 6 and Table 4, and a sample was cleared by centrifugation and the concentration determined in the supernatant using UV-VIS spectroscopy.
Isotonic samples containing 1.5-1.6 mg/mL AnxA1 and a tonicity provider (isotonicity modifier) was prepared around neutral pH according to the specification in table 5. […] The samples were subjected to the ThT assay previously described, where a higher lag-time was observed when using sucrose and mannitol as tonicity providers compared to using trehalose and glucose. The data presented in Table 5 is illustrated graphically in FIG. 7.

Dissolution time = experiment: Dissolution time
Protocol: The peptide was initially wetted with a small amount of solvent and left for 5 minutes and following added the full amount of solvent. The solution was swirled by hand and observation of final dissolution time noted.
1.6 or 3.2 mg AnxA1 was added to Milli Q® water at around neutral pH containing different salts (NaCl, CaCl2, ZnCl2 or HCl) according to table 2. Dissolution times was observed and the resulting solutions was analyzed using the ThT assay.

[2] = Visual appearance of solution; remark: listed apart in the source

AMVSEFLKQAWFIENEEQEYVQTLKSSKGGPGSAVSPYPTFNPSSDV-NH2 [AnxA1]
Visual appearance ([1]; AnxA1 1.5 mg/mL, glucose 5 wt.%, pH 7.1): Clear | Visual appearance ([1]; AnxA1 1.6 mg/mL, mannitol 5 wt.%, pH 6.7): Clear | Visual appearance ([1]; AnxA1 1.6 mg/mL, sucrose 10 wt.%, pH 7.2): Clear | Visual appearance ([1]; AnxA1 1.6 mg/mL, trehalose 10 wt.%, pH 7.2): Clear | Visual appearance ([1]; all isotonic samples, 1.5-1.6 mg/mL AnxA1 and a tonicity provider, around neutral pH): clear solutions | Description (visual appearance) ([1]; approximately 16 mg/mL AnxA1 in milliQ water, pH 2.6-2.0): Clear solution | Description (visual appearance) ([1]; approximately 16 mg/mL AnxA1 in milliQ water, pH 3.8-3.1): Starts clearing up | Description (visual appearance) ([1]; approximately 16 mg/mL AnxA1 in milliQ water, pH 6.1-4.2): Gel-like | Description (visual appearance) ([1]; approximately 16 mg/mL AnxA1 in milliQ water, pH 6.8-6.3): Milky, turbid | Description (visual appearance) ([1]; approximately 16 mg/mL AnxA1 in milliQ water, pH 7.1): Fluffy particles | Description (visual appearance) ([1]; approximately 16 mg/mL AnxA1 in milliQ water, pH ≥7.4): clear solution | appearance of the solution ([1]; approximately 16 mg/mL AnxA1 in milliQ water, pH≤7.1>2.6): unclear | Visual appearance ([1]; approximately 18 mg/mL AnxA1, pH 2, 4 and 6, with and without 5% mannitol in Milli Q water): unclear and or viscous solution | Visual appearance ([1]; approximately 18 mg/mL AnxA1, pH 8 and 10, with and without 5% mannitol in Milli Q water): clear solution | appearance ([1]; assumed 5 mg/mL AnxA1 in Milli Q water, 0.9% NaCl (154 mM), adjusted to pH 2, 4, 6 and 8): opaque | dissolution (Dissolution time; 20 mg freeze-dried AnxA1 per mL 0.9% NaCl (154 mM) in Milli Q at neutral pH): not readily dissolved | Dissolution time (Notes) (Dissolution time; AnxA1 1.5 mg/mL, NaCl 0.9%, ZnCl2 0.77 mM, pH N/A, after more than 2 hours): not fully solubilized | Dissolution time (Notes) (Dissolution time; AnxA1 1.6 mg/mL in Milli Q water, no salt, pH 7.5): 5 min | Dissolution time (Notes) (Dissolution time; AnxA1 1.6 mg/mL in Milli Q water, no salt, pH 7.6): 5 min | Dissolution time (Notes) (Dissolution time; AnxA1 1.6 mg/mL, CaCl2 0.77 mM, pH 7.2): 5 min | Dissolution time (Notes) (Dissolution time; AnxA1 1.6 mg/mL, CaCl2 0.77 mM, pH 7.4): 10 min | Dissolution time (Notes) (Dissolution time; AnxA1 1.6 mg/mL, NaCl 0.9%, CaCl2 0.77 mM, pH 7.1): 35 min | Dissolution time (Notes) (Dissolution time; AnxA1 3.2 mg/mL, NaCl 0.9%, pH 7.2): 45 min | dissolution time (Dissolution time; Milli Q water around neutral pH, no addition of salt): less than 5 minutes | appearance ([2]; 20 mg AnxA1 per mL 0.9% NaCl, neutral pH, after over night at room temperature on rotation): opaque gel like substance | appearance ([2]; AnxA1 3.3, 1.6 and 0.8 mg/mL in Milli Q water, 0.9% NaCl (154 mM), at pH 6.0): opaque | appearance ([2]; AnxA1 3.3, 1.6 and 0.8 mg/mL in Milli Q water, 0.9% NaCl (154 mM), immediately below pH 6.0): precipitated

Reference: US20240041977A1, “ANNEXIN A1 N-TERMINAL PEPTIDE FORMULATIONS AND METHODS” (ResoTher Pharma A/S, priority 2020, published 2024)
